Laboratory results as given in publication PMC5884906, “Single Administration of HBK-15—a Triple 5-HT1A, 5-HT7, and 5-HT3 Receptor Antagonist—Reverses Depressive-Like Behaviors in Mouse Model of Depression Induced by Corticosterone” (Molecular Neurobiology, 2017).
Where two headings read alike, the source gives them in different places.

Columns and labels:
[1] = cited from earlier work; for effect on blood pressure after chronic treatment: antidepressant- and anxiolytic-like doses
5-HT7 receptor = target: 5-HT7 receptor; set-up: method as in PMID 26554929; conditions: previous experiments; read-out: 5-HT7 receptor antagonist IC50; cited from earlier work
[2] = pharmacokinetic study in plasma after i.v. and i.p. administration; assay type: in vivo, mice; conditions: HBK-14 2.5 mg/kg, HBK-15 1.25 mg/kg; for AUC(0-inf) / C0: mouse plasma; for C0: read-out: C 0 (initial concentration); for Cmax / MRT / half-life / Tmax / bioavailability / clearance / Vd: CD-1, mouse, plasma; for Cmax: read-out: C max (maximum plasma concentration); for MRT: read-out: MRT (mean residence time) (converted); for half-life: read-out: t 0.5 (terminal half-life); for Tmax: read-out: t max (time to reach the maximum plasma concentration) (converted); for bioavailability: after i.p. administration, AUCi.p./AUCi.v., read-out: F (absolute bioavailability); for clearance: read-out: Cl (systemic clearance); for Vd: read-out: V d (volume of distribution at steady state)
Protocol: For pharmacokinetic study, HBK-14 and HBK-15 dissolved in saline were administered by an intravenous (i.v.) and intraperitoneal (i.p.) administration at a dose of 2.5 and 1.25 mg/kg, respectively. Blood samples were collected at 0 min (predose), 5 min, 15 min, 30 min, 60 min, 120 min, and 240 min after compounds administration. The blood and brain samples were collected under general anesthesia induced by i.p. injections of 50 mg/kg ketamine plus 8 mg/kg xylazine. Blood samples were collected into heparinized tubes. The samples were immediately centrifuged at 3500 rpm for 10 min, and plasma was collected. The brain and plasma samples were immediately frozen at −80 °C for further analysis.
Pharmacokinetic parameters were calculated by a non-compartmental approach from the average concentration values, using Phoenix WinNonlin software (Certara, Princeton, NJ 08540, USA). First-order elimination rate constant (λ z) was calculated by linear regression of time vs log concentration. Next, the area under the mean serum and brain concentration vs time curve extrapolated to infinity (AUC0→∞) was estimated using the log-linear trapezoidal rule (Eq. 1), where C n is the concentration of last sampling of each compound.1 AUC0→∞=∑i=1nCi+Ci+1/2⋅ti+1−ti+Cn/λz
Area under the first moment curve (AUMC0→∞) was estimated by calculation of the total area under the first moment curve and extrapolated area using the Eq. 2, where t n is the time of last sampling.2 AUMC0→∞=∑i=1nti⋅Ci+ti+1⋅Ci+1/2⋅ti+1−ti+tn⋅Cn/λz+Cn/λz2
Mean residence time (MRT) was calculated as3 MRT=AUMC0→∞/AUC0→∞
Total clearance (ClT) was calculated as4 ClT=Div/AUC0→∞
Volume of distribution at steady state (Vss) was calculated as5 Vss=Div⋅AUMC0→∞/AUC0→∞^2
The quantification of studied compounds in plasma and brain samples was accomplished using UFLC Nexera system (Shimadzu, Kyoto, Japan) coupled to the triple quadrupole mass spectrometer QTrap 5500 (Sciex, Framingham, MA, USA) equipped with Turbo V™ ion source. After preparation, the samples were injected (5 μL) onto Acquity UPLC BEH C18 (3.0 × 100 mm, 1.7 μm, Waters, Milford, MA, USA) analytical column. The mobile phases that consisted of ACN with 0.1% FA (A) and water with 0.1% FA (B) were delivered in isocratic elution mode (40% A, 60% B) at the flow rate of 550 μL/min. The total time of analysis was 8 min including 2 min of column equilibration.
Electrospray ionization process was performed in positive polarization, and the data acquisition was carried out in multiple reaction monitoring mode (MRM) for all analytes and their internal standard (HBK-11 [37]). The ion spray source settings were as follows: spray voltage 4.5 kV, heater temperature 450 °C, curtain gas 25 psi, source gas 1 40 psi, source gas 2 40 psi.
An amount of 50 μL of sample (plasma or brain homogenate) was transferred into the clean Eppendorf tube and spiked with 5 μL of internal standard solution (IS, 1 μg/mL) obtaining the final concentration of 100 ng/mL. After 5 min of mixing (1500 rpm), proteins were precipitated using 150 μL ACN. After 10 min of samples shaking (1500 rpm), the incubation step was performed (10 min, 4 °C). Next, samples were centrifuged (10,000 rpm, 10 min, 4 °C) and the supernatant was transferred into chromatographic vial for LC/MS/MS analysis.

[3] = system: BDNF level in the hippocampus; assay: BDNF level in the hippocampus (ELISA), single administration; assay type: in vivo, mice
Protocol: (§1) Mice were injected with corticosterone (s.c., 20 mg/kg) at random times during the light phase for consecutive 21 days (Fig. 1c). The dose and route of administration of corticosterone were based on studies performed by Zhao and colleagues. After the end of the procedure, next day 30 min before the test, corticosterone-treated mice were given (i.p.) saline, HBK-15 (1.25 mg/kg), fluoxetine (10 mg/kg), or ketamine (1 mg/kg) (Fig. 1c). Control mice received (i.p.) saline. The experimental groups consisted of eight randomly selected animals. We chose the dose of HBK-15 that was active in the chronic experiments (i.e., 1.25 mg/kg). The dose of ketamine was based on the studies performed by Pazini and colleagues. Animals were tested in the forced swim test and spontaneous locomotor activity test. After behavioral testing, mice were scarified and their hippocampi collected for biochemical analysis.
After the behavioral assessments, mice were sacrificed, and their brains were rapidly removed and chilled in an ice-cold saline solution. The hippocampi were dissected on a cold plate, frozen, and stored at −80 °C until assay. On the day of experiments, tissues were thawed on ice and homogenized (1:9 w/v) in phosphate-buffered saline (4 °C) and protease inhibitor cocktail was added. The 10% homogenates were prepared and homogenized for 30 s with TissueRuptor homogenizer. The homogenized tissues were centrifuged (2500×g at 4 °C for 20 min), and the supernatants were collected for further assays.
Protein concentrations of BDNF and NGF in homogenates from hippocampi were determined using the enzyme-linked immunosorbent assay (ELISA) kits (BDNF: DZE201020014, SunRed Biotechnology Company; NGF: MBS825100, MyBioSource) according to the manufacturer’s instructions. […] The samples were analyzed in duplicates, and the mean concentrations were calculated. […] The intensity of the color was read at 450 nm. Absorbance was measured in a multifunction plate reader (POLARstar Omega, BMG Labtech, Germany). […]

[4] = system: corticosterone-treated mice; assay: forced swim test, single administration, corticosterone model; assay type: in vivo
Protocol: as §1
Forced swim test was performed according to the method described by Porsolt and colleagues and previously described. Mice were placed individually for 6 min in glass cylinders (height 25 cm, diameter 10 cm) containing […] (23–25 °C). The total time of immobility was recorded during the final 4 min of the test. The experiments were recorded and scored using aLab.io software by a trained observer blind to the treatments.

[5] = acute experiment, corticosterone 20 mg/kg s.c. 21 days + saline

| SMILES | effect on blood pressure after chronic treatment [1] | IC50 (5-HT7 receptor) [nM] | AUC(0-inf) ([2]; CD-1, ip, i.p.) [ng·h/mL] | AUC(0-inf) ([2]; CD-1, iv, i.v.) [ng·h/mL] | C0 ([2]; CD-1, iv, i.v.) [ng/mL] | Cmax ([2]; ip) [ng/mL] | MRT ([2]; ip) [h] | half-life ([2]; ip) [h] | Tmax ([2]; ip) [min] | bioavailability ([2]; ip) [%] | clearance ([2]; iv) [mL/min/kg] | MRT ([2]; iv) [h] | Vd ([2]; iv) [L/kg] | half-life ([2]; iv) [h] | t 0.5 (terminal half-life) ([2]; i.p.) [h] | t 0.5 (terminal half-life) ([2]; i.v.) [h] | also measured |
| --- | --- | --- | --- | --- | --- | --- | --- | --- | --- | --- | --- | --- | --- | --- | --- | --- | --- |
| COc1ccccc1N1CCN(CCOCCOc2c(C)cccc2C)CC1.Cl [HBK-14, 1-[(2,6-Dimethylphenoxy)ethoxyethyl]-4-(2-methoxyphenyl)piperazine hydrochloride] | neither HBK-14 nor HBK-15 lowered blood pressure | 77 | 560 | 1720 | 410 | 269 | 0.805 | 0.633 | 5 | 15 | 24.2 | 7.57 | 11.2 | 5.38 | 0.637 | 5.378 | – |
| C[C@]12C[C@H](O)[C@H]3[C@@H](CCC4=CC(=O)CC[C@@]43C)[C@@H]1CC[C@@H]2C(=O)CO [corticosterone] | – | – | – | – | – | – | – | – | – | – | – | – | – | – | – | – | decrease in BDNF level in the hippocampus vs control [3, 5]: 47.0%; increase in immobility vs control [4, 5]: 20% |
| COc1ccccc1N1CCN(CCOCCOc2c(C)cccc2Cl)CC1.Cl [HBK-15, 1-[(2-chloro-6-methylphenoxy)ethoxyethyl]-4-(2-methoxyphenyl)piperazine hydrochloride] | neither HBK-14 nor HBK-15 lowered blood pressure | 220 | 261 | 484 | 602 | 359 | 1.81 | 1.4 | 5 | 54 | 40.2 | 1.5 | 3.5 | 1.18 | 1.39 | 1.18 | effect on corticosterone-induced decrease in BDNF level in the hippocampus ([3]; single 1.25 mg/kg i.p.): reversed the decrease in BDNF level; hypotensive activity after single administration [1]: did not exhibit hypotensive activity; effect on corticosterone-induced increase in immobility ([4]; single 1.25 mg/kg i.p., 30 min before the test): reversed an increase in immobility |
